Experimental data published in patent publication US6372883B1, “Antiviral medicaments” (Hoffmann-La Roche Inc., priority 1998, dated 2002).

Target: HCV proteinase (MBP-NS3″Gly 12-NS4A enzyme)
Assay: HCV proteinase inhibition: cleavage of quenched fluorescence substrate NS4A/B.F peptide by MBP-NS3″Gly 12-NS4A enzyme
Assay type: biochemical
Settings: 10 μM NS4A/B.F peptide, pH 8.5, 10% DMSO, room temperature for 60 minutes; IC50 by manual graph analysis
Source text: As mentioned earlier, the compounds of formula I and salts of acidic compounds of formula I with bases are inhibitors of proteases of viral origin.
Construction of Plasmid for the Expression of MBP-NS3″Gly 12-NS4A Enzyme in E. coli
The nucleotide sequence of this expression plasmid is given in SEQ ID NO:1 appended hereto and the amino acid sequence of its expression product is given in SEQ ID NO:2 appended hereto. It is based on the pMAL®-c2 vector supplied by New England Biolabs, Inc. (32 Tozer Rd., Beverly, Mass., USA). The principle of the construction was to create an in-frame fusion of the maltose binding protein (MBP) gene supplied by the pMAL-c2 vector, and sequences of the HCV genome necessary for NS3 proteinase activity. These HCV sequences were inserted between the EcoRI and HindIII sites of the pMAL-c2 polylinker (positions 2695 and 3556 respectively of the sequence given in SEQ ID NO:1).
HCV sequences were derived from plasmids pDS 3348-4045 and pBFK 3348-6062, described by Bartenschlager et al, 1993 (Journal of Virology, 67, 3835-3844). Regions encompassing the NS3 proteinase domain (amino acids 1007-1219) and the NS4A domain (amino acids 1658-1711) were isolated and inserted into the pMAL-c2 vector using standard recombinant DNA techniques, including the PCR amplification of required sequences. Between the NS3 and NS4A domains, a linker region was constructed using synthetic oligonucleotides (positions 3343-3390; amino acids 606-621). The resulting plasmid was used to transform E. coli (strain MC1061) cells and expression of the MBP-NS3″Gly 12-NS4A enzyme was induced as described below.
Protein Expression and Purification
E. coli (strain MC1061) cells transformed with the foregoing plasmid were grown in Luria broth containing ampicillin (100 μg/ml) at 37° C. The cells were grown until an optical density of 0.5 at 600 nm had been reached and enzyme expression was then induced by adding 1 mM isopropylthiogalactoside and incubating at 37° C. for a further 3 hours. The cells were harvested by centrifugation and stored at −80° C.
A pellet from […] bacterial culture was resuspended in E.coli lysis buffer (20 mM Tris HCl, pH 7.5, containing 150 mM NaCl, 1 mM EDTA and 10 mM dithiothreitol) and cell lysis was achieved by two passages through a French Pressure cell. The clear supernatant obtained by centrifugation (18000 g, 30 minutes) was then applied to an amylose resin column (4×1 cm) (New England Biolabs) which had been equilibrated with ice-cold 50 mM Tris HCl, pH 8.5, containing 200 mM NaCl, 1 mM dithiothreitol and 5% glycerol. The column was washed thoroughly with the equilibration buffer and bound protein was eluted using the equilibration buffer containing 10 mM maltose. Fractions of 1 ml were collected, with fractions containing the enzyme being pooled and stored at −80° C. Enzyme concentration was assayed by the method of M. B. Bradford, Analytical Biochemistry, 1976, vol. 72, p.248.
Compounds of formula I (routinely prepared as stock solutions in DMSO) were assayed for their ability to inhibit the cleavage of a quenched fluorescence substrate [NS4A/B.F peptide (N-[4-[4-(dimethylamino)phenylazo]benzoyl]-L-α-aspartyl-L-(α-glutamyl-L-methionyl-L-α-glutamyl-L-α-glutamyl-L-cysteinyl-L-alanyl-L-seryl-L-histidyl-N5-[2-(5-sulpho-1-naphthylamino)ethyl]-L-glutamin-amide); Wilkinson et al, Society for General Microbiology Meeting, University of Warwick, England, Mar. 28, 1996] based on the NS4A/4B cleavage site by enzyme MBP-NS3{acute over (ii)}Gly 12-NS4A in microtitre plates as follows:
The enzyme (0.4-0.6 μg) was added to a mixture (200 μl final volume) containing 50 mM Tris HCl, pH 8.5, with 1 mM NaCl, 0.1 mM EDTA, 1 mM dithiothreitol, 0.1% Triton X-100, 10 μM NS4A/B.F peptide and the test compound of formula I prepared as a stock solution in DMSO and added to give a 10% final concentration of DMSO. […]

| Molecule | IC50 |
| --- | --- |
| 1(RS)-[[N-[N-[N-[N-[N-(4-Acetamidobutyryl)-L-α-aspartyl-L-α-glutamyl]-2-methyl-L-phenylalanyl]-3-methyl-L-valyl]-L-leucyl]-amino]propylboronic acid | 230 nM |
| 2(RS)-[[N-[N-[N-[N2-(N-Acetyl-L-tyrosyl)-N6-nitro-L-arginyl]-2-methyl-L-phenylalanyl]-3-methyl-L-valyl]-L-leucyl]amino]-4,4,4-trifluorobutyraldehyde | 44 nM |
| 2(RS)-[[N-[N-[N-[N-[N-(3-Carboxypropionyl)-L-α-aspartyl-L-α-glutamyl]-2-methyl-L-phenylalanyl]-3-methyl-L-valyl]-O-benzyl-L-tyrosyl]amino]-4,4,4-trifluorobutyraldehyde | 200 nM |
| 2(RS)-[[N-[N-[N-[N-[N-(3-Carboxypropionyl)-L-α-aspartyl-O-benzyl-L-α-glutamyl]-2-methyl-L-phenylalanyl]-3-methyl-L-valyl]-L-leucyl]amino]-4,4,4-trifluorobutyraldehyde | 110 nM |
| 2(RS)-[[N-[N-[N-[N-[N-(9-Hydroxy-9-fluorenyl)carbonyl]-L-seryl]-O-benzyl-D-seryl]-2-methyl-L-phenylalanyl]-3-methyl-L-valyl]-L-leucyl]-amino]-4,4,4-trifluorobutyraldehyde | 20 nM |
| Cc1ccccc1C[C@H](NC(=O)[C@H](NC(=O)[C@H](CS)NC(=O)CCC(=O)O)C(C)C)C(=O)N[C@H](C(=O)N[C@@H](CC(C)C)C(=O)NC(C=O)CC(F)(F)F)C(C)(C)C (mixture of isomers) [D, 2(RS)-[[N-[N-[N-[N-[N-(3-Carboxypropionyl)-L-cysteinyl]-D-valyl]-2-methyl-L-phenylalanyl]-3-methyl-L-valyl]-L-leucyl]amino]-4,4,4-trifluorobutyraldehyde] | 140 nM |
